Results reported in article PMC4522657, “Identification of a DYRK1A Inhibitor that Induces Degradation of the Target Kinase using Co-chaperone CDC37 fused with Luciferase nanoKAZ” (Scientific Reports, 2015).

How the values were obtained:
Assay in all cases: Kinase panel, CaNDY 1 µM
Type in all cases: biochemical
FGFR4(N535K) = target: T1, FGFR4(N535K) (Homo sapiens, UniProt P22455, N535K); details: CaNDY 1 µM relative to DMSO
T1 construct: purchased Carna Biosciences

RET(S891A) = target: T2, RET(S891A) (Homo sapiens, UniProt P07949, S891A); details: CaNDY 1 µM relative to DMSO
T2 construct: purchased Carna Biosciences

TRKC = target: T3, TRKC (Homo sapiens, UniProt Q16288); details: CaNDY 1 µM relative to DMSO
T3 construct: purchased Carna Biosciences

TYK2 = target: T4, TYK2 (Homo sapiens, UniProt P29597); details: CaNDY 1 µM relative to DMSO
T4 construct: purchased Carna Biosciences

IRAK1 = target: T5, IRAK1 (Homo sapiens, UniProt P51617); details: CaNDY 1 µM relative to DMSO
T5 construct: purchased Carna Biosciences

MAP3K1_Cascade = target: T6, MAP3K1_Cascade (Homo sapiens, UniProt Q13233); details: CaNDY 1 µM relative to DMSO
T6 construct: purchased Carna Biosciences

MLK2_Cascade = target: T7, MLK2_Cascade (Homo sapiens, UniProt Q02779); details: CaNDY 1 µM relative to DMSO
T7 construct: purchased Carna Biosciences

MSK1 = target: T8, MSK1 (Homo sapiens, UniProt O75582); details: CaNDY 1 µM relative to DMSO
T8 construct: purchased Carna Biosciences

MST1 = target: T9, MST1 (Homo sapiens, UniProt Q13043); details: CaNDY 1 µM relative to DMSO
T9 construct: purchased Carna Biosciences

NDR2 = target: T10, NDR2 (Homo sapiens, UniProt Q9Y2H1); details: CaNDY 1 µM relative to DMSO
T10 construct: purchased Carna Biosciences

p70S6K = target: T11, p70S6K (Homo sapiens, UniProt P23443); details: CaNDY 1 µM relative to DMSO
T11 construct: purchased Carna Biosciences

PAK5 = target: T12, PAK5 (Homo sapiens, UniProt Q9P286); details: CaNDY 1 µM relative to DMSO
T12 construct: purchased Carna Biosciences

PDHK2 = target: T13, PDHK2 (Homo sapiens, UniProt Q15119); details: CaNDY 1 µM relative to DMSO
T13 construct: purchased Carna Biosciences

PKACα = target: T14, PKACα (Homo sapiens, UniProt P17612); details: CaNDY 1 µM relative to DMSO
T14 construct: purchased Carna Biosciences

DYRK1A = DYRK1A (Homo sapiens, UniProt Q13627); design: purchased Carna Biosciences
Excerpt: (§1) Detailed information on the assay conditions is available on the website of Carna Biosciences (http://www.carnabio.com/english/index.html; Kobe, Japan). In brief, full-length human recombinant kinases were expressed using a baculovirus expression system as amino-terminal GST-fusion proteins, and purified by glutathione-Sepharose chromatography. The GenBank accession numbers of DYRK1A, DYRK1B, DYRK2, and DYRK3 were NP_001387.2, NP_004705.1, NP_003574.1, and NP_003573.2. Kinase activities were evaluated by Off-chip Mobility Shift Assay after reaction of 1 μM of the substrate DYRKtide-F with ATP (25 μM for DYRK1A, 50 μM for DYRK1B, 10 μM for DYRK2, and 5 μM for DYRK3). For each compound, a DMSO solution was diluted in assay buffer to yield a final concentration of 1% DMSO. After incubation for one hour at room temperature, substrate phosphorylation was analyzed by electrophoretic separation of the substrate and products using a Caliper LC3000 platform (Caliper Life Sciences, Mountain View, CA, USA). The phosphorylated product (P)/(P + substrate) ratio was calculated at each concentration of each small molecule and the percent inhibition was expressed relative to a control assay in the absence of the small molecule. […] The IC50 of each compound was calculated by interpolation on a log-concentration-response curve fitted with a four-parameter logistic equation.
(§2) All kinase assays were carried out at Carna Biosciences. The inhibitory map was made with Kinome Render[36].

DYRK1B = DYRK1B (Homo sapiens, UniProt Q9Y463); design: purchased Carna Biosciences
Excerpt: as §1, §2

Haspin = target: T15, Haspin (Homo sapiens, UniProt Q8TF76); design: purchased Carna Biosciences
T15 sequence (Q8TF76 1-798): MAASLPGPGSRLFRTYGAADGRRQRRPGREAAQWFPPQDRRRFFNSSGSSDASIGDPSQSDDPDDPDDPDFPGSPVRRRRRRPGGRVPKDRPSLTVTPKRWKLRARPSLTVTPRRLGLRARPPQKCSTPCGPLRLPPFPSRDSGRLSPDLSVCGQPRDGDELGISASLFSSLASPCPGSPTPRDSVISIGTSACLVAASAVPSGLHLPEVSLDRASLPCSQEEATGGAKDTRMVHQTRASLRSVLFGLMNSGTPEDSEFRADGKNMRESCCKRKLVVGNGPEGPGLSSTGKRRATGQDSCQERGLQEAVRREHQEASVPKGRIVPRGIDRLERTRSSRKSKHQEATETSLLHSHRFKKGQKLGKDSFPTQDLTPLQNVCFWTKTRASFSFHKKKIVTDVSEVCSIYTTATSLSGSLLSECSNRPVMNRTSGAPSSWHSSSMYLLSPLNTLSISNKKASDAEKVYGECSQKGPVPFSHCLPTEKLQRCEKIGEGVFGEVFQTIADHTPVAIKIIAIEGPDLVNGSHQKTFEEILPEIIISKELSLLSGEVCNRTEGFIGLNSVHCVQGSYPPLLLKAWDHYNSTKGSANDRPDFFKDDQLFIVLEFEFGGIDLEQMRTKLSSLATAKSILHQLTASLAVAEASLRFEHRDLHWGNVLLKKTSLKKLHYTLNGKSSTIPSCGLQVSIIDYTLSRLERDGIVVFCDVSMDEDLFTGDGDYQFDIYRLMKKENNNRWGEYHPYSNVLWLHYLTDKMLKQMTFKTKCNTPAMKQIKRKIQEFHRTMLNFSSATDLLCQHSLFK
Excerpt: as §1, §2

[1] = 1 μM CaNDY, read-out: percentage inhibition

Sequence of DYRK1B (Q9Y463 whole entry): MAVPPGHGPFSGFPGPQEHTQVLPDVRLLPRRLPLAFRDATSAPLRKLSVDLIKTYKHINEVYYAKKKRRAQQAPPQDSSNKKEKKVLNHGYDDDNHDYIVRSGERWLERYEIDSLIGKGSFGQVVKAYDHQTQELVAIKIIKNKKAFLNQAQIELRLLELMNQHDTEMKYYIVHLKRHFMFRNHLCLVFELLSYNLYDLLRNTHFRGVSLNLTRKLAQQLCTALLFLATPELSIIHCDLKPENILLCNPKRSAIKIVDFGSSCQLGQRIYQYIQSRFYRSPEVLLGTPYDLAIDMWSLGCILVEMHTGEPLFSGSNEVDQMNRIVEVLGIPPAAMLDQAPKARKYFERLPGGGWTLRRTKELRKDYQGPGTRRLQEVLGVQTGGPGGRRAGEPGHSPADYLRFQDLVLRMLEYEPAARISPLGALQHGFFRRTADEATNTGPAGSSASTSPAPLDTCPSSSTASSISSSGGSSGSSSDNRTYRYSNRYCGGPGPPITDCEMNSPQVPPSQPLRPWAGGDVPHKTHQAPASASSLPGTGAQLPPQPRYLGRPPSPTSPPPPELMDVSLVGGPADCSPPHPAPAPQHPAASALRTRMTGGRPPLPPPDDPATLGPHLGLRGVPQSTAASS
T1 sequence (P22455 22-802 N535K): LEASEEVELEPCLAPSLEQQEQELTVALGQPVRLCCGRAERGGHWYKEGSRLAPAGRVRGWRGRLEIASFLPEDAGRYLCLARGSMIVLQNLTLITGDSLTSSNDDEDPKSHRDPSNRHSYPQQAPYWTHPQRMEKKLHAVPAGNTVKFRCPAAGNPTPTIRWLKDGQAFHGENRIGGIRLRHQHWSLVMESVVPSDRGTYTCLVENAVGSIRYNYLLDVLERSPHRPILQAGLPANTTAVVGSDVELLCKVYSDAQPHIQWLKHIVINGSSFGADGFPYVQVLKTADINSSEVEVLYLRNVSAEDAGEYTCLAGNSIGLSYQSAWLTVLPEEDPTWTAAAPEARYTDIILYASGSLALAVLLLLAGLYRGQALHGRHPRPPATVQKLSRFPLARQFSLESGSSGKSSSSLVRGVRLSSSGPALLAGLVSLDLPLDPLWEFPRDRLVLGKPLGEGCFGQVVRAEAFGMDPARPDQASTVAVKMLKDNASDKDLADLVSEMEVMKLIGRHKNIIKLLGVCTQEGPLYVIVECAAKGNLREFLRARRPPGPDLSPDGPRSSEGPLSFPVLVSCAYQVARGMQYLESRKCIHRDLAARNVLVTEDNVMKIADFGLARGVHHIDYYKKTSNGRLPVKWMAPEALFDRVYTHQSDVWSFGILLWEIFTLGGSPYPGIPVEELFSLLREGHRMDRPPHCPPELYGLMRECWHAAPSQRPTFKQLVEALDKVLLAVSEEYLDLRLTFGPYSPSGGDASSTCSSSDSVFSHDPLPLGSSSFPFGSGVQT
T9 sequence (Q13043 whole entry): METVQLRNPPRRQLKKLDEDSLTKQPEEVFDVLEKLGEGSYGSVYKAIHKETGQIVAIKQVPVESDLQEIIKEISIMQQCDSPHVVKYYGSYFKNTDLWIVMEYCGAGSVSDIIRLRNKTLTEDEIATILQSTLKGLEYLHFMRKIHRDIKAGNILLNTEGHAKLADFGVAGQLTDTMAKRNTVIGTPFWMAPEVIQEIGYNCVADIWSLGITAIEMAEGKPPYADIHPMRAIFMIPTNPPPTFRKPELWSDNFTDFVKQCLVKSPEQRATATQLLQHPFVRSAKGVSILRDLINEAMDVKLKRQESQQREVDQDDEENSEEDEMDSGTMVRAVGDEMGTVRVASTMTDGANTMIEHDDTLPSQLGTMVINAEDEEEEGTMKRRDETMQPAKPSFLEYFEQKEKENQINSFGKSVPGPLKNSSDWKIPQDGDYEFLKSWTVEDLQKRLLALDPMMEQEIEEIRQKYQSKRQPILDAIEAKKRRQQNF
T3 sequence (Q16288 32-839): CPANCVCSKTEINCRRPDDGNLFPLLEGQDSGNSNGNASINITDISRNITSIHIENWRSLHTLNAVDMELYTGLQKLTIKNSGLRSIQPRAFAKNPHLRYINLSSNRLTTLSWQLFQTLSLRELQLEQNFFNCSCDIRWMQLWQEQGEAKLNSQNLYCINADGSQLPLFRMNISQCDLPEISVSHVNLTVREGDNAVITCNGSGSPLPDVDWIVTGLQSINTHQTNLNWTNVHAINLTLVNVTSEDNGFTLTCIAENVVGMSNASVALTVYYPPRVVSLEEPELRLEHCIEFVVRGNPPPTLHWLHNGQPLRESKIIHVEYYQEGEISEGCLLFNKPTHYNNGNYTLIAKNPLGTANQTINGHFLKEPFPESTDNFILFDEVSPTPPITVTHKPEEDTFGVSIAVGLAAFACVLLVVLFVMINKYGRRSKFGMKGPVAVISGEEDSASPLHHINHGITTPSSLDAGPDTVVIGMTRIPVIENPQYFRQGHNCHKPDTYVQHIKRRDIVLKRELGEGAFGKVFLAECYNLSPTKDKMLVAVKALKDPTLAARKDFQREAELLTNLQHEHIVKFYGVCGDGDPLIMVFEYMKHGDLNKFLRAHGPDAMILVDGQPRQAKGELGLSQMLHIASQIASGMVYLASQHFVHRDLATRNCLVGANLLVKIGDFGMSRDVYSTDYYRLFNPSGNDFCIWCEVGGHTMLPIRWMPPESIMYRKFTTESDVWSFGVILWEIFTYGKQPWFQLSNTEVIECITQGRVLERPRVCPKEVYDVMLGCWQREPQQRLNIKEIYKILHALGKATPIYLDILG
T6 sequence (Q13233 whole entry): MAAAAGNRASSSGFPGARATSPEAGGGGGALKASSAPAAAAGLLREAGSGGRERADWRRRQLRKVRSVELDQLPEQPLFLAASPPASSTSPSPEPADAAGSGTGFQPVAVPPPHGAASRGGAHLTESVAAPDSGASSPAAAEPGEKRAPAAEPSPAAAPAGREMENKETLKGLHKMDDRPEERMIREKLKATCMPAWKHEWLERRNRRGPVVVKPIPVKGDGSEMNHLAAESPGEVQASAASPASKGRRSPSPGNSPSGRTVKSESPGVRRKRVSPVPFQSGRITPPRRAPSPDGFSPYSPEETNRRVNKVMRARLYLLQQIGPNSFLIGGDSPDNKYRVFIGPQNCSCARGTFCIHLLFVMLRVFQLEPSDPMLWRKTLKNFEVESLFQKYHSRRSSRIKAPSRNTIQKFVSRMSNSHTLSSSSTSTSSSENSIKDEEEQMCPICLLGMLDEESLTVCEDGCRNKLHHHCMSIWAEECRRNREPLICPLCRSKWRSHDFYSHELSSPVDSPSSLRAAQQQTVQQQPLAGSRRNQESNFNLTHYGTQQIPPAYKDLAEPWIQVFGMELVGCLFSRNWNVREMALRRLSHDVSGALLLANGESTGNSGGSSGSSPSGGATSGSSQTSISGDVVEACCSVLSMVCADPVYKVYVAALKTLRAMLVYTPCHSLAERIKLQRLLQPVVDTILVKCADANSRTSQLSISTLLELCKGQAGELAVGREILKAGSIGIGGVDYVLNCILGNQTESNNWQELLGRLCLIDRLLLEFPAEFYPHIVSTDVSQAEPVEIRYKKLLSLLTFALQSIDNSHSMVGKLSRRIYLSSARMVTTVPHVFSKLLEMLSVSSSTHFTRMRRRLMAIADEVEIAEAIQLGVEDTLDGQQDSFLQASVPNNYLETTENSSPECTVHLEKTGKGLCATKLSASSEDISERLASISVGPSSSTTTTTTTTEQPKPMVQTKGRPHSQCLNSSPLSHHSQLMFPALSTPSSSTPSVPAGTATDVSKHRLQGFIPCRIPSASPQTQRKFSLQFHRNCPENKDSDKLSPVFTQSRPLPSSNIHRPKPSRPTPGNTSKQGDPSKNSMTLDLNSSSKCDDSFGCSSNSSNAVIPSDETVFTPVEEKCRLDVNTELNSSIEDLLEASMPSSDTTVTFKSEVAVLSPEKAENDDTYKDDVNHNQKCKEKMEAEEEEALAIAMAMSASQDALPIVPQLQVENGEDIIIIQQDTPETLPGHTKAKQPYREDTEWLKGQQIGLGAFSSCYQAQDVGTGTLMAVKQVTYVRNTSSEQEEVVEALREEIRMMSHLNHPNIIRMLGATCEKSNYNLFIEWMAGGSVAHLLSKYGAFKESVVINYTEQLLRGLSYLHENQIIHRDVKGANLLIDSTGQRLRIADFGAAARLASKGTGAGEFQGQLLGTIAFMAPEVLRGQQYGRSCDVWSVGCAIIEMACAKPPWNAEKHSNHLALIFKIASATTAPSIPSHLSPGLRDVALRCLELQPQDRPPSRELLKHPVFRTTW
T8 sequence (O75582 whole entry): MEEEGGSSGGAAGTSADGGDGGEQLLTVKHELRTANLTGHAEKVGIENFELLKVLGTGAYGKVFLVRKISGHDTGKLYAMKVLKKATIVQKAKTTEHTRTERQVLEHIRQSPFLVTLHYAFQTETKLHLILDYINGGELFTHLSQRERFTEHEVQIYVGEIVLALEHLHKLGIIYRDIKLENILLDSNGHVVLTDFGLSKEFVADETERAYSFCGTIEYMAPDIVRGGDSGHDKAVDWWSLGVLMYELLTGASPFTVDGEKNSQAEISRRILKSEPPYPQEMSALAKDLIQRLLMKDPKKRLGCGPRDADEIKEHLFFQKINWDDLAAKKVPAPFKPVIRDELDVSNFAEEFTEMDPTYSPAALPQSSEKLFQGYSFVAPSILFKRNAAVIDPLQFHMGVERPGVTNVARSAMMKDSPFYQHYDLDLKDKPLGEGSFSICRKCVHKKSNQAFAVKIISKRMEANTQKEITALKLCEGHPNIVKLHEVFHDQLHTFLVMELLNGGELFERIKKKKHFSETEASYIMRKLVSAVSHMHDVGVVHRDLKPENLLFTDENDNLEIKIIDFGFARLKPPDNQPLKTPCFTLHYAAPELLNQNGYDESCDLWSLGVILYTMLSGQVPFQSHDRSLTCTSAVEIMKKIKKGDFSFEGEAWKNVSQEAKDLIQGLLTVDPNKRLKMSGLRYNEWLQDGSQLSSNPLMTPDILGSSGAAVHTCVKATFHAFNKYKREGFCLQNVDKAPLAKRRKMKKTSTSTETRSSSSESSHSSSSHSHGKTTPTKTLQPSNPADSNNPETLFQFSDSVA

## [H]/N=C1/NC(=O)C(=Cc2ccc3c(c2)CCO3)S1 [CaNDY, (Z)-5-[(2,3-dihydrobenzofuran-5-yl)methylene]-2-iminothiazolidin-4-one]
FGFR4(N535K)
  remaining activity at 1 µM: 100%
RET(S891A)
  remaining activity at 1 µM: 103%
TRKC
  remaining activity at 1 µM: 101%
TYK2
  %Activity: 97.4%
IRAK1
  remaining activity at 1 µM: 87.4%
MAP3K1_Cascade
  remaining activity at 1 µM: 99%
MLK2_Cascade
  remaining activity at 1 µM: 124%
MSK1
  remaining activity at 1 µM: 98.1%
MST1
  %Activity: 101.2%
NDR2
  remaining activity at 1 µM: 91.9%
p70S6K
  remaining activity at 1 µM: 89.7%
PAK5
  remaining activity at 1 µM: 97.5%
PDHK2
  remaining activity at 1 µM: 91.6%
PKACα
  remaining activity at 1 µM: 88.9%
DYRK1A; [1]
  inhibition at 1 µM: > 90%
DYRK1A; CaNDY 1 µM relative to DMSO
  remaining activity at 1 µM: 0.9%
DYRK1B; [1]
  inhibition at 1 µM: > 90%
DYRK1B; CaNDY 1 µM relative to DMSO
  remaining activity at 1 µM: 3.7%
Haspin; [1]
  inhibition at 1 µM: > 90%
Haspin; CaNDY 1 µM relative to DMSO
  remaining activity at 1 µM: 3.8%
